For the assay, the system named is PC-3 cells. The experiment in a line: PC-3 Oxygen Rate Consumption (OCR) Assay. In kind it is cell-based. Particulars: Homo sapiens, 0.05 h, medium with 2% FBS, OCR at 3-min post-injection normalized to % increase over DMSO-treated cells, concentration for half-maximal OCR increase, read-out: EC50-PC3-OCR-FBS-3min. The procedure: PC-3 Oxygen Rate Consumption (OCR) Assay Procedure:
One day before the assay, PC-3 cells were seeded at 2.5×10^4 cells/160 μL/well in a 96-well XFe96 cell plate, part of a FlexPak containing a cell plate and a cartridge (Agilent, Sunnyvale, CA). The cells were incubated overnight at 37° C. in a 5% CO2 and 90% humidity incubator with F12K culture medium (ThermoFisher Scientific/Invitrogen, Grand Island, NY) containing 10% FBS and 1% penicillin/streptomycin. On the day of the assay, the cells were washed twice with 300 µL/well Medium A [XF assay medium (Agilent) supplemented 10 mM glucose, 1 mM pyruvate, and 2% fetal bovine serum (FBS)], and incubated with 175 µL/well Media A for 1 hr in a 37° C., non-CO2 incubator prior to the measurement of cellular respiration. Compounds of interests were prepared in 1:2 serial dilutions with 100% DMSO and then further diluted into 8× working stock with Media A prior to being loaded to Injection Port A on a XFe96 Analyzer (Agilent). Six replicates were used for each treatment. The cartridge was calibrated in the XFe96 Analyzer 30 minute prior to the measurement of cellular respiration. Basal levels of OCR were measured three times, each using a “3-minute mixing/3-minute measurement” program. The compound effect was measured immediately after compound injection from Injection Port A, and OCR was monitored continuously 10 times, each time using a “1-minute mixing/2-minute measurement” program for a total of 30 minutes post compound injection. The level of OCR at 3-min post-injection was normalized to % increase over DMSO-treated cells. The concentration of compound required to reach the half-maximal OCR increase was defined as EC50 Table 2 contains PC3 OCR EC50 values for the compounds disclosed.
For the molecule `CS(=O)(=O)c1ccc(S(=O)(=O)Nc2cc(F)ccc2C(=O)NC23CC(c4ccccc4)(C2)C3)cc1` [Example 12, 4-fluoro-2-((4-(methylsulfonyl)phenyl)sulfonamido)-N-(3-phenylbicyclo[1.1.1]pentan-1-yl)benzamide], the EC50 is 6.88 µM.

Regarding `N#CC1CC2(C1)CN(S(=O)(=O)Nc1cc(F)c(F)cc1C(=O)NC13CC(C(F)(F)F)(C1)C3)C2` [Example 232, 2-((6-cyano-2-azaspiro[3.3]heptane)-2-sulfonamido)-4,5-difluoro-N-(3-(trifluoromethyl)bicyclo[1.1.1]pentan-1-yl)benzamide], the EC50 was 5.58 µM.

As for `CC(C)S(=O)(=O)Nc1ccc(C(F)(F)F)cc1C(=O)NC12CCC(C#N)(CC1)CC2` [Example 72, N-(4-cyanobicyclo[2.2.2]octan-1-yl)-2-((1-methylethyl)sulfonamido)-5-(trifluoromethyl)benzamide], the half-maximal effective concentration (EC50) amounted to 4.01 µM.

In the case of `N#CCCS(=O)(=O)Nc1ccc(Cl)cc1C(=O)NC12CC(C(F)(F)F)(C1)C2` [Example 228, 5-chloro-2-((2-cyanoethyl)sulfonamido)-N-(3-(trifluoromethyl)bicyclo[1.1.1]pentan-1-yl)benzamide], the EC50 was 3.37 µM.

With `CCCS(=O)(=O)Nc1ccc(C(F)(F)F)cc1C(=O)NC12CCC(C#N)(CC1)CC2` [Example 126, N-(4-cyanobicyclo[2.2.2]octan-1-yl)-2-(propylsulfonamido)-5-(trifluoromethyl)benzamide], the concentration giving a half-maximal response (EC50) is 5.12 µM.

`CS(=O)(=O)Nc1ccc(C(F)(F)F)cc1C(=O)NC12CC(C1)C2` [Example 212, N-(bicyclo[1.1.1]pentan-1-yl)-2-(methylsulfonamido)-5-(trifluoromethyl)benzamide]: the EC50 stood at 8.62 µM.

Take `COc1ccc(C(=O)NC23CC(c4ccccc4)(C2)C3)c(NS(=O)(=O)c2ccc(S(C)(=O)=O)cc2)c1` [Example 89, 4-methoxy-2-((4-(methylsulfonyl)phenyl)sulfonamido)-N-(3-phenylbicyclo[1.1.1]pentan-1-yl)benzamide]: the concentration giving a half-maximal response (EC50) amounted to 26.7 µM.

Consider `COc1ccc(S(=O)(=O)Nc2cc(C(F)(F)F)ccc2C(=O)NC23CC(C(F)(F)F)(C2)C3)cc1` [Example 111, 2-((4-methoxyphenyl)sulfonamido)-4-(trifluoromethyl)-N-(3-(trifluoromethyl)bicyclo[1.1.1]pentan-1-yl)benzamide], for which the EC50 was 0.811 µM.

Take `CS(=O)(=O)Nc1ccccc1C(=O)NC12CC(C(F)(F)F)(C1)C2` [Example 138, 2-(methylsulfonamido)-N-(3-(trifluoromethyl)bicyclo[1.1.1]pentan-1-yl)benzamide]: the EC50 is at least 100 µM.

Take `COCCS(=O)(=O)Nc1ccc(C(F)(F)F)cc1C(=O)NC12CCC(C#N)(CC1)CC2` [Example 128, N-(4-cyanobicyclo[2.2.2]octan-1-yl)-2-((2-methoxyethyl)sulfonamido)-5-(trifluoromethyl)benzamide]: the EC50 is 15.4 µM.

As for `CS(=O)(=O)Nc1cccc(F)c1C(=O)NC12CC(C(F)(F)F)(C1)C2` [Example 142, 2-fluoro-6-(methylsulfonamido)-N-(3-(trifluoromethyl)bicyclo[1.1.1]pentan-1-yl)benzamide], the EC50 was at least 100 µM.

For the molecule `CC(C)(C)S(=O)(=O)Nc1ccc(Br)cc1C(=O)NC12CC(C(F)(F)F)(C1)C2` [Example 95, 5-bromo-2-((1,1-dimethylethyl)sulfonamido)-N-(3-(trifluoromethyl)bicyclo[1.1.1]pentan-1-yl)benzamide], the concentration for a half-maximal effect (EC50) was 1.12 µM.

Regarding `CS(=O)(=O)c1ccc(S(=O)(=O)Nc2ccc(C(F)(F)F)cc2C(=O)NC23CCC(C#N)(CC2)CC3)cc1` [Example 118, N-(4-cyanobicyclo[2.2.2]octan-1-yl)-2-((4-(methylsulfonyl)phenyl)sulfonamido)-5-(trifluoromethyl)benzamide], the 50% effective concentration (EC50) is 49.2 µM.

In the case of `CCS(=O)(=O)c1ccc(S(=O)(=O)Nc2cc(C(F)(F)F)ccc2C(=O)NC23CC(C(F)(F)F)(C2)C3)cc1` [Example 24, 2-((4-(ethylsulfonyl)phenyl)sulfonamido)-4-(trifluoromethyl)-N-(3-(trifluoromethyl)bicyclo[1.1.1]pentan-1-yl)benzamide], the concentration for a half-maximal effect (EC50) came out at 3.32 µM.

For `COc1ccc(C(=O)NC23CC(C(F)(F)F)(C2)C3)c(NS(=O)(=O)c2ccc(S(C)(=O)=O)cc2)c1` [Example 88, 4-methoxy-2-((4-(methylsulfonyl)phenyl)sulfonamido)-N-(3-(trifluoromethyl)bicyclo[1.1.1]pentan-1-yl)benzamide], the EC50 worked out at 26.3 µM.

Turning to `O=C(NC12CC(C(F)(F)F)(C1)C2)c1ccc(C(F)(F)F)cc1NS(=O)(=O)c1ccccc1` [Example 38, 2-(phenylsulfonamido)-4-(trifluoromethyl)-N-(3-(trifluoromethyl)bicyclo[1.1.1]pentan-1-yl)benzamide], the 50% effective concentration (EC50) amounted to 0.478 µM.

On to `NS(=O)(=O)c1ccc(S(=O)(=O)Nc2cc(C(F)(F)F)ccc2C(=O)NC23CC(C(F)(F)F)(C2)C3)cc1` [Example 58, 2-((4-sulfamoylphenyl)sulfonamido)-4-(trifluoromethyl)-N-(3-(trifluoromethyl)bicyclo[1.1.1]pentan-1-yl)benzamide], for which the EC50 turned out to be 63.4 µM.

As to `O=C(NC12CCC(C(F)(F)F)(CC1)CC2)c1ccc(Cl)cc1NS(=O)(=O)C1CCS(=O)(=O)CC1` [Example 241, 4-chloro-2-((1,1-dioxidotetrahydro-2H-thiopyran)-4-sulfonamido)-N-(4-(trifluoromethyl)bicyclo[2.2.2]octan-1-yl)benzamide], the EC50 turned out to be 6.38 µM.

Regarding `CC(C)S(=O)(=O)Nc1ccc(C(F)(F)F)cc1C(=O)NC12CC(C#N)(C1)C2` [Example 68, N-(3-cyanobicyclo[1.1.1]pentan-1-yl)-2-((1-methylethyl)sulfonamido)-5-(trifluoromethyl)benzamide], the EC50 came out at 5.13 µM.

Consider `CS(=O)(=O)Nc1cc(F)c(F)cc1C(=O)NC12CCC(C#N)(CC1)CC2` [Example 215, N-(4-cyanobicyclo[2.2.2]octan-1-yl)-4,5-difluoro-2-(methylsulfonamido)benzamide], for which the EC50 was found to be 21.4 µM.

For `CCS(=O)(=O)c1ccc(S(=O)(=O)Nc2cc(C(F)(F)F)ccc2C(=O)NC23CC(F)(C2)C3)cc1` [Example 26, 2-((4-(ethylsulfonyl)phenyl)sulfonamido)-N-(3-fluorobicyclo[1.1.1]pentan-1-yl)-4-(trifluoromethyl)benzamide], the EC50 is 6.94 µM.

As for `CS(=O)(=O)Nc1cc(S(F)(F)(F)(F)F)ccc1C(=O)NC12CC(C(F)(F)F)(C1)C2` [Example 146, 2-(methylsulfonamido)-4-(pentafluoro-λ^6-sulfanyl)-N-(3-(trifluoromethyl)bicyclo[1.1.1]pentan-1-yl)benzamide], the EC50 was determined as 0.677 µM.

Take `CC1(S(=O)(=O)Nc2cc(C(F)(F)F)ccc2C(=O)NC23CC(C(F)(F)F)(C2)C3)CC1` [Example 63, 2-((1-methylcyclopropane)-1-sulfonamido)-4-(trifluoromethyl)-N-(3-(trifluoromethyl)bicyclo[1.1.1]pentan-1-yl)benzamide]: the EC50 came to 0.937 µM.

On to `O=C(NC12CC(c3ccccc3)(C1)C2)c1ccc(C(F)(F)F)cc1NS(=O)(=O)c1ccc(OC(F)(F)F)cc1` [Example 31, N-(3-phenylbicyclo[1.1.1]pentan-1-yl)-2-((4-(trifluoromethoxy)phenyl)sulfonamido)-4-(trifluoromethyl)benzamide], for which the EC50 came out at 0.595 µM.

For `O=C(NC12CC(Cl)(C1)C2)c1cc(C(F)(F)F)ccc1NS(=O)(=O)C1COC1` [Example 74, N-(3-chlorobicyclo[1.1.1]pentan-1-yl)-2-(oxetane-3-sulfonamido)-5-(trifluoromethyl)benzamide], the EC50 amounted to 6.17 µM.

With `N#CC12CC(NC(=O)c3ccc(C(F)(F)F)cc3NS(=O)(=O)c3ccccc3)(C1)C2` [Example 41, N-(3-cyanobicyclo[1.1.1]pentan-1-yl)-2-(phenylsulfonamido)-4-(trifluoromethyl)benzamide], the EC50 came out at 2.16 µM.

Take `O=C(NC12CC(C(F)(F)F)(C1)C2)c1ccc(C(F)(F)F)cc1NS(=O)(=O)c1ccc(-c2nnn[nH]2)cc1` [Example 159, 2-((4-(1H-tetrazol-5-yl)phenyl)sulfonamido)-4-(trifluoromethyl)-N-(3-(trifluoromethyl)bicyclo[1.1.1]pentan-1-yl)benzamide]: the concentration giving a half-maximal response (EC50) was at least 200 µM.

As to `CN(C)S(=O)(=O)Nc1cc(C(F)(F)F)ccc1C(=O)NC12CCC(C#N)(CC1)CC2` [Example 163, N-(4-cyanobicyclo[2.2.2]octan-1-yl)-2-((N,N-dimethylsulfamoyl)amino)-4-(trifluoromethyl)benzamide], the EC50 was 3.77 µM.

As to `CCS(=O)(=O)Nc1cc(F)c(F)cc1C(=O)NC12CCC(C#N)(CC1)CC2` [Example 216, N-(4-cyanobicyclo[2.2.2]octan-1-yl)-4,5-difluoro-2-(ethylsulfonamido)benzamide], the concentration for a half-maximal effect (EC50) came out at 16.9 µM.

Values taken from patent US12049439B2 (OrsoBio, Inc., priority 2018, dated 2024).
